Test system: old Labrador Retriever dog that had difficulty in standing and walking
Assay: Exercise ability (walking distance) of a dog under cofactor supplementation
Assay type: in vivo
Method: When L-carnitine, acetyl-L-carnitine, with added pantothenate at 0.4 mg/kg body weight were supplemented for one week, exercise ability increased to 2740 yards and, by three weeks, ability was 3807 yards. However, when pantothenate was eliminated for two weeks, exercise ability declined to 350 yards. Then when pantothenate was returned to the L-carnitine and acetyl-L-carnitine combination, his exercise capability returned to more than 3800 yards. This case illustrates the contribution of the various cofactors to physical activity.

SMILES | distance it could walk (after one week of L-carnitine at 5 mg/kg body weight, 340 yards before) [yards] | exercise ability (distance walked) (after two weeks of acetyl-L-carnitine at 4 mg/kg body weight and no L-carnitine) [yards]
C[N+](C)(C)C[C@H](O)CC(=O)[O-] [L-carnitine] | 1240 | 
CC(=O)O[C@H](CC(=O)[O-])C[N+](C)(C)C [acetyl-L-carnitine] |  | 648
